± gives the expanded uncertainty stated by the source.
Experiments:
[1] = 101.33 kPa, Liquid, Pycnometric method
[2] = xn = mol fraction of the nth substance listed; details: Liquid, measurement of pressure, x2 = 0

Structure (SMILES) | mass density ([1]; 300.71 K) | mass density ([1]; 303.35 K) | mass density ([1]; 304.95 K) | mass density ([1]; 307.31 K) | mass density ([1]; 310.81 K) | mass density ([1]; 314.35 K) | binary diffusion coefficient ([2]; 303.15 K) | binary diffusion coefficient ([2]; 313.15 K) | binary diffusion coefficient ([2]; 323.15 K) | binary diffusion coefficient ([2]; 333.15 K) | binary diffusion coefficient ([2]; 343.15 K) | binary diffusion coefficient ([2]; 353.15 K)
C[n+]1ccn(CCO)c1.F[B-](F)(F)F [1-(2-hydroxyethyl)-3-methylimidazolium tetrafluoroborate] | 1384 ± 1 kg/m3 | 1380 ± 1 kg/m3 | 1379 ± 1 kg/m3 | 1376 ± 1 kg/m3 | 1373 ± 1 kg/m3 | 1369 ± 1 kg/m3 |  |  |  |  |  | 
C[n+]1ccn(CCO)c1.F[B-](F)(F)F [1-(2-hydroxyethyl)-3-methylimidazolium tetrafluoroborate] + O=C=O |  |  |  |  |  |  | 1.4e-08 m2/s | 2.09e-08 m2/s | 3.94e-08 m2/s | 4.65e-08 m2/s | 5.71e-08 m2/s | 7.16e-08 m2/s
C[n+]1ccn(CCO)c1.F[B-](F)(F)F [1-(2-hydroxyethyl)-3-methylimidazolium tetrafluoroborate] + S |  |  |  |  |  |  | 1.79e-08 m2/s | 2.15e-08 m2/s | 2.76e-08 m2/s | 3.24e-08 m2/s | 3.8e-08 m2/s | 4.41e-08 m2/s
